The text below walks through data of US7211572B2 (Japan Tobacco Inc., priority 2003, dated 2007).

The structures appear in SMILES notation. Where a name gives a salt, the structure may show the parent alone.

In general, IC50 refers to the concentration needed to halve the response being measured.

The test addresses T1, HIV integrase (Human immunodeficiency virus type 1 group M subtype B, UniProt P12497, F1332H).
T1 construct: HIV integrase full length gene; made in house; host or cells: Escherichia coli BL21(DE3), plasmid pET21a-INH
The test can be described thus: Determination of enzyme (HIV integrase) inhibitory activity. As to conditions: recombinant HIV integrase (F185H), strand transfer ELISA, absorbance at 450 nm. It is filed as biochemical. The gist of the method: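 Full-length integrase with F185H, expressed in E. coli and purified, was reacted for 60 min at 37 °C with compound and biotinylated donor DNA bound to streptavidin plates. Target DNA was added for 10 min, then anti-digoxigenin-peroxidase detection at A450; IC50 from % inhibition versus enzyme-free blank.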
For orientation: In an ELISA, binding on a coated surface is turned into a signal by an enzyme label.
As to `CC(C)(C)C(=O)c1cn2c(c(O)c1=O)C(=O)N(Cc1cccc(Cl)c1)CC2` [Example 223, 2-(3-chlorobenzyl)-7-(2,2-dimethylpropionyl)-9-hydroxy-3,4-dihydro-2H-pyrido[1,2-a]pyrazine-1,8-dione hydrochloride], the IC50 is 10 to 100 nM.
In the case of `COCC1CN(Cc2ccc(Cl)c(Cl)c2)C(=O)c2c(O)c(=O)ccn21` (centres unmarked) [Example 29, 2-(3,4-dichlorobenzyl)-9-hydroxy-4-methoxymethyl-3,4-dihydro-2H-pyrido[1,2-a]pyrazine-1,8-dione], the IC50 fell in the range of 10 to 100 nM.
Under `O=C1c2c(O)c(=O)ccn2CCN1Cc1cc(Cl)cc(Cl)c1` [Example 66, 2-(3,5-dichlorobenzyl)-9-hydroxy-3,4-dihydro-2H-pyrido[1,2-a]pyrazine-1,8-dione] stands 10 to 100 nM; under `O=C(NCC(F)(F)F)c1cn2ccn(Cc3cccc(Cl)c3)c(=O)c2c(O)c1=O` [Example 181, N-(2,2,2-trifluoroethyl)-2-(3-chlorobenzyl)-9-hydroxy-1,8-dioxo-1,8-dihydro-2H-pyrido[1,2-a]pyrazine-7-carboxamide], 10 to 100 nM.
Under `CC(C)CC(=O)c1cn2ccn(Cc3ccc(F)cc3)c(=O)c2c(O)c1=O` [Example 387, 2-(4-fluorobenzyl)-9-hydroxy-7-(3-methylbutyryl)-2H-pyrido[1,2-a]pyrazine-1,8-dione hydrochloride] stands 10 to 100 nM; under `CCC(O)c1cn(Cc2ccc(Cl)c(Cl)c2)c(=O)c2c(O)c(=O)ccn12` (centres unmarked) [Example 430, 2-(3,4-dichlorobenzyl)-9-hydroxy-4-(1-hydroxypropyl)-2H-pyrido[1,2-a]pyrazine-1,8-dione], 10 to 100 nM; under `O=c1c(-c2ccccc2)cn2ccn(Cc3cccc(Cl)c3)c(=O)c2c1O` [Example 96, 2-(3-chlorobenzyl)-9-hydroxy-7-phenyl-2H-pyrido[1,2-a]pyrazine-1,8-dione hydrochloride], under 10 nM.
As for `O=C(Nc1cn2ccn(Cc3cccc(Cl)c3)c(=O)c2c(O)c1=O)c1ccccc1` [Example 257, N-[2-(3-chlorobenzyl)-9-hydroxy-1,8-dioxo-1,8-dihydro-2H-pyrido[1,2-a]pyrazin-7-yl]benzamide], the figure is under 10 nM; as for `O=C(Nc1cn2ccn(Cc3cccc(Cl)c3)c(=O)c2c(O)c1=O)c1ccc(F)cc1` [Example 278, N-[2-(3-chlorobenzyl)-9-hydroxy-1,8-dioxo-1,8-dihydro-2H-pyrido[1,2-a]pyrazin-7-yl]-4-fluorobenzamide], under 10 nM.
With `O=C1c2c(O)c(=O)c(-c3cnccn3)cn2CCN1Cc1cccc(Cl)c1` [Example 416, 2-(3-chlorobenzyl)-9-hydroxy-7-(pyrazin-2-yl)-3,4-dihydro-2H-pyrido[1,2-a]pyrazine-1,8-dione hydrochloride], the IC50 lay within 10 to 100 nM.
For the compound `CC(C)(C)C(=O)c1cn2c(c(O)c1=O)C(=O)N(Cc1cccc(Cl)c1F)CC2` [Example 367, 2-(3-chloro-2-fluorobenzyl)-7-(2,2-dimethylpropionyl)-9-hydroxy-3,4-dihydro-2H-pyrido[1,2-a]pyrazine-1,8-dione hydrochloride], the IC50 fell in the range of 10 to 100 nM.
As for `O=C(CCc1ccccc1)Nc1cn2ccn(Cc3cccc(Cl)c3)c(=O)c2c(O)c1=O` [Example 258, N-[2-(3-chlorobenzyl)-9-hydroxy-1,8-dioxo-1,8-dihydro-2H-pyrido[1,2-a]pyrazin-7-yl]-3-phenylpropionamide], the figure is under 10 nM; as for `Cc1cccc(C)c1-c1cn2ccn(Cc3cccc(Cl)c3)c(=O)c2c(O)c1=O` [Example 135, 2-(3-chlorobenzyl)-7-(2,6-dimethylphenyl)-9-hydroxy-2H-pyrido[1,2-a]pyrazine-1,8-dione hydrochloride], 10 to 100 nM.
For the compound `O=C1c2c(O)c(=O)ccn2CCN1Cc1cccc(Cl)c1F` [Example 51, 2-(3-chloro-2-fluorobenzyl)-9-hydroxy-3,4-dihydro-2H-pyrido[1,2-a]pyrazine-1,8-dione], the IC50 was in the range of 10 to 100 nM.
